From patent US10597388B2, “Pyridazinone herbicides” (FMC CORPORATION, priority 2014, dated 2020)

Columns and labels:
Experiment in all cases: Test E greenhouse herbicide test, pre- and postemergence
Type in all cases: in vivo
corn (Zea mays) = test system: corn (Zea mays)
Outline: (§1)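 Scores (0–100, visual, vs controls) reflect greenhouse growth of 14 to 21 d after treatment. Application was pre-emergence to silt loam or post-emergence at the 1- to 4-leaf stage.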

[1] = test system: wild poinsettia (Euphorbia heterophylla)
Outline: as §1

[2] = test system: velvetleaf (Abutilon theophrasti); conditions: Preemergence
Outline: as §1

[3] = test system: surinam grass (Brachiaria decumbens); conditions: Preemergence
Outline: as §1

[4] = test system: foxtail, giant (giant foxtail, Setaria faberii); conditions: Preemergence
Outline: as §1

[5] = test system: nutsedge, yellow (yellow nutsedge, Cyperus esculentus); conditions: Preemergence
Outline: as §1

[6] = test system: arrowleaf sida (Sida rhombifolia)
Outline: as §1

[7] = test system: johnsongrass (Sorghum halepense); conditions: Preemergence
Outline: as §1

[8] = test system: nightshade (eastern black nightshade, Solanum ptycanthum); conditions: Preemergence
Outline: as §1

[9] = test system: momingglory (Ipomoea coccinea); conditions: Preemergence
Outline: as §1

[10] = test system: foxtail, green (green foxtail, Setaria viridis); conditions: Preemergence
Outline: as §1

[11] = test system: lambsquarters (Chenopodium album); conditions: Preemergence
Outline: as §1

[12] = test system: panicum, fall (fall panicum, Panicum dichotomiflorum)
Outline: as §1

[13] = test system: field bindweed (Convolvulus arvensis)
Outline: as §1

[14] = test system: waterhemp (common waterhemp, Amaranthus rudis)
Outline: as §1

[15] = 62 g ai/ha, Postemergence, scale 0 to 100 (0 no effect, 100 complete control)
[16] = 62 g ai/ha, Preemergence, scale 0 to 100 (0 no effect, 100 complete control)
[17] = 125 g ai/ha, Postemergence, scale 0 to 100 (0 no effect, 100 complete control)
[18] = 125 g ai/ha, Preemergence, scale 0 to 100 (0 no effect, 100 complete control)
[19] = Postemergence, 16 g ai/ha, visual, scale 0 no effect to 100 complete control
[20] = Postemergence, 31 g ai/ha, visual, scale 0 no effect to 100 complete control
[21] = Preemergence, 16 g ai/ha, scale 0 to 100, 0 no effect, 100 complete control
[22] = Preemergence, 31 g ai/ha, scale 0 to 100, 0 no effect, 100 complete control
[23] = 62 g ai/ha, scale 0 to 100 (0 no effect, 100 complete control)
[24] = 125 g ai/ha, scale 0 to 100 (0 no effect, 100 complete control)
[25] = 16 g ai/ha, scale 0 to 100, 0 no effect, 100 complete control
[26] = 31 g ai/ha, scale 0 to 100, 0 no effect, 100 complete control

CCCC(=O)Oc1c(C)nn(C)c(=O)c1-c1c(C)sc2ccc(C)cc12 [Compound 105]
Plant response rating, Corn (corn (Zea mays); [15]): 15
Plant response rating, Corn (corn (Zea mays); [16]): 0
Plant response rating, Corn (corn (Zea mays); [17]): 20
Plant response rating, Corn (corn (Zea mays); [18]): 0
Plant response rating, Corn (corn (Zea mays); [19]): 0
Plant response rating, Corn (corn (Zea mays); [20]): 5
Plant response rating, Corn (corn (Zea mays); [21]): 0
Plant response rating, Corn (corn (Zea mays); [22]): 0
Plant response rating, Poinsettia, Wild [1, 15]: 25
Plant response rating, Poinsettia, Wild [1, 16]: 10
Plant response rating, Poinsettia, Wild [1, 17]: 30
Plant response rating, Poinsettia, Wild [1, 18]: 10
Plant response rating, Poinsettia, Wild [1, 19]: 30
Plant response rating, Poinsettia, Wild [1, 20]: 30
Plant response rating, Poinsettia, Wild [1, 21]: 0
Plant response rating, Poinsettia, Wild [1, 22]: 10
Plant response rating, Velvetleaf [2, 23]: 70
Plant response rating, Velvetleaf [2, 24]: 95
Plant response rating, Velvetleaf [2, 25]: 0
Plant response rating, Velvetleaf [2, 26]: 50
Plant response rating, Surinam Grass [3, 23]: 10
Plant response rating, Surinam Grass [3, 24]: 70
Plant response rating, Surinam Grass [3, 25]: 0
Plant response rating, Surinam Grass [3, 26]: 0
Plant response rating, Foxtail, Giant [4, 23]: 35
Plant response rating, Foxtail, Giant [4, 24]: 75
Plant response rating, Foxtail, Giant [4, 25]: 0
Plant response rating, Foxtail, Giant [4, 26]: 0
Plant response rating, Nutsedge, Yellow [5, 23]: 10
Plant response rating, Nutsedge, Yellow [5, 24]: 40
Plant response rating, Nutsedge, Yellow [5, 25]: 0
Plant response rating, Nutsedge, Yellow [5, 26]: 0
Plant response rating, Arrowleaf Sida [6, 15]: 60
Plant response rating, Arrowleaf Sida [6, 16]: 40
Plant response rating, Arrowleaf Sida [6, 17]: 70
Plant response rating, Arrowleaf Sida [6, 18]: 50
Plant response rating, Arrowleaf Sida [6, 19]: 50
Plant response rating, Arrowleaf Sida [6, 20]: 60
Plant response rating, Arrowleaf Sida [6, 21]: 0
Plant response rating, Arrowleaf Sida [6, 22]: 0
Plant response rating, Johnsongrass [7, 23]: 20
Plant response rating, Johnsongrass [7, 24]: 20
Plant response rating, Johnsongrass [7, 25]: 0
Plant response rating, Johnsongrass [7, 26]: 0
Plant response rating, Nightshade [8, 23]: 98
Plant response rating, Nightshade [8, 24]: 98
Plant response rating, Nightshade [8, 25]: 0
Plant response rating, Nightshade [8, 26]: 50
Plant response rating, Morningglory [9, 23]: 70
Plant response rating, Morningglory [9, 24]: 60
Plant response rating, Morningglory [9, 25]: 40
Plant response rating, Morningglory [9, 26]: 20
Plant response rating, Foxtail, Green [10, 23]: 30
Plant response rating, Foxtail, Green [10, 24]: 40
Plant response rating, Foxtail, Green [10, 25]: 0
Plant response rating, Foxtail, Green [10, 26]: 0
Plant response rating, Lambsquarters [11, 23]: 100
Plant response rating, Lambsquarters [11, 24]: 100
Plant response rating, Lambsquarters [11, 25]: 0
Plant response rating, Lambsquarters [11, 26]: 0
Plant response rating, Panicum, Fall [12, 15]: 70
Plant response rating, Panicum, Fall [12, 16]: 90
Plant response rating, Panicum, Fall [12, 17]: 80
Plant response rating, Panicum, Fall [12, 18]: 98
Plant response rating, Panicum, Fall [12, 19]: 40
Plant response rating, Panicum, Fall [12, 20]: 60
Plant response rating, Panicum, Fall [12, 21]: 25
Plant response rating, Panicum, Fall [12, 22]: 65
Plant response rating, Field Bindweed [13, 15]: 75
Plant response rating, Field Bindweed [13, 16]: 50
Plant response rating, Field Bindweed [13, 17]: 95
Plant response rating, Field Bindweed [13, 18]: 70
Plant response rating, Field Bindweed [13, 19]: 75
Plant response rating, Field Bindweed [13, 20]: 80
Plant response rating, Field Bindweed [13, 21]: 20
Plant response rating, Field Bindweed [13, 22]: 20
Plant response rating, Waterhemp [14, 16]: 90
Plant response rating, Waterhemp [14, 17]: 90
Plant response rating, Waterhemp [14, 18]: 100
Plant response rating, Waterhemp [14, 19]: 60
Plant response rating, Waterhemp [14, 20]: 70
Plant response rating, Waterhemp [14, 21]: 70
Plant response rating, Waterhemp [14, 22]: 80
